Data from patent US20240024372A1, “COMPOUNDS AND METHODS TO TREAT CYSTIC FIBROSIS” (City of Hope, priority 2020, published 2024).

Tested on: HuBEC cells
Assay: Uptake of BODIPY-labeled exosomes by HuBEC (light microscopy)
Assay type: cell-based, human
Settings: HuBEC pre-treated with 200 μM Genistein, 37° C., 30 minutes, then BODIPY-labeled MSC-derived CFZF-VPR exosomes 3 h
Experimental: FIGS. 7A-7B show exosome uptake inhibition. FIG. 7A: To study the pathway of exosome uptake, HuBEC cells were pre-treated with 200 μM of Genistein and incubated at 37° C. for 30 minutes before exosome addition, and then incubated with BODIPY-labeled exosomes at 37° C. for 3 h. FIG. 7B: Uptake was quantified by determining the percentage of BODIPY-fluorescence intensity.
Exosome labeling. Exosomal membrane was labeled with BODIPY TR ceramide, according to the manufacturer's protocol (Molecular Probes/Invitrogen Life Technologies, Carlsbad, California, USA). Briefly, 5e+10 exosomes were stained with 10 μmol/L BODIPY TR ceramide. Excess fluorescent dye was removed by using Exosome Spin Columns (Life Technologies, Carlsbad, California, USA). BODIPY-labeled exosomes were dropped on 10e+3 cells and incubated in exosome depleted medium at 37° C. and 5% CO2. Bodipy-labeled exosomes uptake was evaluated by light microscopy.
Light microscopy and imaging. Cells were cultivated fixed with BD cytofix/Cytoperm™ fixation/permeabilization Kit (Cat. No. 554715 BD bioscience, Franklin Lakes, NJ, USA) at room temperature for 20 minutes and then stained with fluorescent 488-Phalloidin (green) for actin using the manufacturer's recommendations (Molecular Probes/Invitrogen Life Technologies). Fluorescence images were collected on Zeiss LSM-700 confocal microscope. […]

## O=c1c(-c2ccc(O)cc2)coc2cc(O)cc(O)c12 [genistein]
  inhibition of exosome uptake (BODIPY-fluorescence intensity): inhibition of the MSC derived CFZF-VPR exosome uptake
